In PubChem BioAssay (NCI):
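Five concentrations, 48 hours, 96-well plates. TGI denotes the concentration required for complete inhibition of growth.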

How the values were obtained:
Experiment in all cases: NCI-60 cell line screen, 48 h
786-0 renal = tested on: 786-0 renal
A498 renal = tested on: A498 renal
A549 NSCLC = tested on: A549 NSCLC
ACHN renal = tested on: ACHN renal
CAKI-1 renal = tested on: CAKI-1 renal
CCRF-CEM leukemia = tested on: CCRF-CEM leukemia
COLO 205 colon = tested on: COLO 205 colon
DLD-1 colon = tested on: DLD-1 colon
DMS 114 small cell lung = tested on: DMS 114 small cell lung
EKVX NSCLC = tested on: EKVX NSCLC
HCT-116 colon = tested on: HCT-116 colon
HL-60(TB) leukemia = tested on: HL-60(TB) leukemia
HOP-62 NSCLC = tested on: HOP-62 NSCLC
HOP-92 NSCLC = tested on: HOP-92 NSCLC
HT29 colon = tested on: HT29 colon
IGROV1 ovarian = tested on: IGROV1 ovarian
K-562 leukemia = tested on: K-562 leukemia
KM12 colon = tested on: KM12 colon
KM20L2 colon = tested on: KM20L2 colon
LXFL 529 NSCLC = tested on: LXFL 529 NSCLC
M14 melanoma = tested on: M14 melanoma
M19-MEL melanoma = tested on: M19-MEL melanoma
MOLT-4 leukemia = tested on: MOLT-4 leukemia
NCI-H226 lung = tested on: NCI-H226 lung
NCI-H23 lung = tested on: NCI-H23 lung
NCI-H460 lung = tested on: NCI-H460 lung
NCI-H522 lung = tested on: NCI-H522 lung
OVCAR-3 ovarian = tested on: OVCAR-3 ovarian
OVCAR-4 ovarian = tested on: OVCAR-4 ovarian
OVCAR-5 ovarian = tested on: OVCAR-5 ovarian
OVCAR-8 ovarian = tested on: OVCAR-8 ovarian
RPMI-8226 leukemia = tested on: RPMI-8226 leukemia
SF-268 CNS = tested on: SF-268 CNS
SF-295 CNS = tested on: SF-295 CNS
SK-MEL-2 melanoma = tested on: SK-MEL-2 melanoma
SK-MEL-28 melanoma = tested on: SK-MEL-28 melanoma
SK-MEL-5 melanoma = tested on: SK-MEL-5 melanoma
SK-OV-3 ovarian = tested on: SK-OV-3 ovarian
SN12C renal = tested on: SN12C renal
SNB-19 CNS = tested on: SNB-19 CNS
SNB-75 CNS = tested on: SNB-75 CNS
SNB-78 CNS = tested on: SNB-78 CNS
SR leukemia = tested on: SR leukemia
SW-620 colon = tested on: SW-620 colon
TK-10 renal = tested on: TK-10 renal
U251 CNS = tested on: U251 CNS
UACC-257 melanoma = tested on: UACC-257 melanoma
UACC-62 melanoma = tested on: UACC-62 melanoma
UO-31 renal = tested on: UO-31 renal
XF 498 CNS = tested on: XF 498 CNS
HCC-2998 colon = tested on: HCC-2998 colon
RXF 393 renal = tested on: RXF 393 renal
SF-539 CNS = tested on: SF-539 CNS

`CC(=O)Oc1c(-c2ccccc2)[nH]c2cc([N+](=O)[O-])c(/C(Cl)=C/c3ccccc3)cc12` showed a TGI (786-0 renal) of 25.5 µM, a TGI (A498 renal) of 23.6 µM and a TGI (A549 NSCLC) of 44.5 µM. The TGI (ACHN renal) was 46.6 µM, the TGI (CAKI-1 renal) was 69.2 µM and the TGI (CCRF-CEM leukemia) was 29.5 µM. The TGI (COLO 205 colon) was 19.6 µM, the TGI (DLD-1 colon) was > 100 µM and the TGI (DMS 114 small cell lung) was 7.72 µM. It also gave a TGI (EKVX NSCLC) of 59.3 µM, a TGI (HCT-116 colon) of 17.3 µM and a TGI (HL-60(TB) leukemia) of 10.7 µM. It also gave a TGI (HOP-62 NSCLC) of 61.5 µM, a TGI (HOP-92 NSCLC) of 18.3 µM and a TGI (HT29 colon) of 11.1 µM. For the same compound, the TGI (IGROV1 ovarian) was 65.8 µM, the TGI (K-562 leukemia) was > 100 µM and the TGI (KM12 colon) was 16.3 µM. For the same compound, the TGI (KM20L2 colon) was 18.6 µM, the TGI (LXFL 529 NSCLC) was 18.1 µM and the TGI (M14 melanoma) was 23.1 µM. For the same compound, the TGI (M19-MEL melanoma) was 19.4 µM, the TGI (MOLT-4 leukemia) was 13.8 µM and the TGI (NCI-H226 lung) was 18.1 µM. The TGI (NCI-H23 lung) was 11.6 µM, the TGI (NCI-H460 lung) was 70.2 µM and the TGI (NCI-H522 lung) was 18.5 µM. For the same compound, the TGI (OVCAR-3 ovarian) was 46.8 µM, the TGI (OVCAR-4 ovarian) was 39.3 µM and the TGI (OVCAR-5 ovarian) was 17.7 µM. The TGI (OVCAR-8 ovarian) was 17.7 µM, the TGI (RPMI-8226 leukemia) was > 100 µM and the TGI (SF-268 CNS) was > 100 µM. The TGI (SF-295 CNS) was 22.5 µM, the TGI (SK-MEL-2 melanoma) was 30.8 µM and the TGI (SK-MEL-28 melanoma) was 25.2 µM. The TGI (SK-MEL-5 melanoma) was 3.75 µM, the TGI (SK-OV-3 ovarian) was 83.9 µM and the TGI (SN12C renal) was 19.4 µM. For the same compound, the TGI (SNB-19 CNS) was 94.2 µM, the TGI (SNB-75 CNS) was > 100 µM and the TGI (SNB-78 CNS) was 52.6 µM. It also gave a TGI (SR leukemia) of 27.4 µM, a TGI (SW-620 colon) of 29.3 µM and a TGI (TK-10 renal) of 64.4 µM. For the same compound, the TGI (U251 CNS) was 19.8 µM, the TGI (UACC-257 melanoma) was 27.7 µM and the TGI (UACC-62 melanoma) was 19.6 µM. For the same compound, the TGI (UO-31 renal) was 27.6 µM and the TGI (XF 498 CNS) was 19.3 µM.

For `COC(=O)C1=C(C)N2CCCOC2(C)C(C(=O)OC)C1c1cccc(Cl)c1` (configuration not stated), the TGI (A549 NSCLC) was > 100 µM, the TGI (ACHN renal) was 93.3 µM and the TGI (CAKI-1 renal) was 92.5 µM. For the same compound, the TGI (CCRF-CEM leukemia) was > 100 µM, the TGI (COLO 205 colon) was 37.9 µM and the TGI (DMS 114 small cell lung) was 60.5 µM. The TGI (EKVX NSCLC) was 89.3 µM, the TGI (HCC-2998 colon) was > 100 µM and the TGI (HCT-116 colon) was > 100 µM. For the same compound, the TGI (HL-60(TB) leukemia) was 58.4 µM, the TGI (HOP-62 NSCLC) was 48.7 µM and the TGI (HOP-92 NSCLC) was 73.9 µM. For the same compound, the TGI (HT29 colon) was 56.2 µM, the TGI (IGROV1 ovarian) was > 100 µM and the TGI (K-562 leukemia) was > 100 µM. For the same compound, the TGI (KM12 colon) was 43.9 µM, the TGI (KM20L2 colon) was 64.4 µM and the TGI (LXFL 529 NSCLC) was 74.6 µM. The TGI (M14 melanoma) was 74.7 µM, the TGI (M19-MEL melanoma) was 54.3 µM and the TGI (MOLT-4 leukemia) was 45.1 µM. For the same compound, the TGI (NCI-H226 lung) was 59.6 µM, the TGI (NCI-H23 lung) was > 100 µM and the TGI (NCI-H460 lung) was 61.3 µM. For the same compound, the TGI (OVCAR-3 ovarian) was 70.8 µM, the TGI (OVCAR-4 ovarian) was > 100 µM and the TGI (OVCAR-8 ovarian) was 87.9 µM. The TGI (RPMI-8226 leukemia) was 52.1 µM, the TGI (RXF 393 renal) was > 100 µM and the TGI (SF-268 CNS) was > 100 µM. The TGI (SF-295 CNS) was 88.9 µM, the TGI (SF-539 CNS) was 93.8 µM and the TGI (SK-MEL-2 melanoma) was 36.6 µM. The TGI (SK-MEL-28 melanoma) was > 100 µM, the TGI (SK-MEL-5 melanoma) was > 100 µM and the TGI (SNB-19 CNS) was > 100 µM. The TGI (SNB-75 CNS) was 42.3 µM, the TGI (SW-620 colon) was > 100 µM and the TGI (TK-10 renal) was > 100 µM. The TGI (UACC-257 melanoma) was 57.1 µM, the TGI (UACC-62 melanoma) was 36.5 µM and the TGI (UO-31 renal) was 71.2 µM.
